Assay [1] has as its target T1, PHD2 (Homo sapiens, UniProt Q9GZT9).
T1 construct: expressed in transfected cells; host or cells: 293 cells (whole cell lysate used as the enzyme source)
Briefly: Prolyl hydroxylation assay / in vitro VHL binding assay with GST-HIF-1α (531-826). It is filed as biochemical. The following applies: lysates of PHD2/OS-9 transfected 293 cells; 1 mM DMOG; FIG. 7A. As to the method:
[^35S]methionine-labeled VHL protein was synthesized in vitro and GST-HIF-1α (531-826) fusion protein (GstA) was expressed in E. coli. 293 cells were transfected with empty, PHD2, or OS-9 expression vector. After 24 h, cells were washed twice with cold hypotonic extraction buffer containing 20 mM Tris (pH 7.5), 5 mM KCl, 1.5 mM MgCl2, 1 mM dithiothreitol and lysed with hypotonic extraction buffer in a Dounce homogenizer. The cell extract was centrifuged at 10,000×g for 10 min at 4° C., and the supernatant was stored in aliquots at −70° C. GstA (4 μg) was preincubated with whole cell lysate (50 μg) in a total volume of 50 μl with PBS-T at 30° C. for 10 min with or without 1 mM dimethyloxalyl glycine (DMOG). The reaction was terminated by addition of desferrioxamine to 1 mM. One aliquot (0.5 μg of GstA) was used for immunoblot assay using anti-hydroxyproline-564 HIF-1α antibody (Chan et al., 2002). The remainder ([…] of GstA) was used for in vitro VHL binding assay.
(§1) For in vitro VHL binding assay, preincubated GstA and 5 μl of [^35S]methionine-labeled VHL protein were mixed in a total volume of 300 μl of PBS-T with 1 mM desferrioxamine and incubated at 4° C. for 90 min. 20 ul of glutathione-Sepharose-4B beads (Amersham Biosciences) was added and incubated for 30 min with rotation. Beads were washed three times with PBS-T. Proteins were eluted in Laemmli sample buffer, fractionated by SDS-PAGE, and detected by autoradiography. For PHD binding assay, […] of GST-HIF-1α was preincubated with 50 μg of -whole cell lysate in a total volume of 50 μl with PBS-T at 30° C. for 10 min with or without 1 mM DMOG. The reaction was terminated by addition of desferrioxamine to 1 mM, 20 μl of glutathione-Sepharose-4B beads were added and incubated for 30 min. The beads were washed three times with PBS-T. Bound protein was eluted in Laemmli sample buffer, fractionated by SDS-PAGE, and subjected to immunoblot assay using antibodies against PHD2 (Novus Biologicals Inc.) or GST (Amersham).

The target in assay [2] is T1, PHD2. Briefly: PHD binding assay (pull down of PHD2 with GST-HIF-1α (531-826)). The following applies: lysates of transfected 293 cells; 1 mM DMOG; FIG. 7B. As to the method: as §1
The test system of the next assay is HIF-1α. Briefly: HIF-1α protein levels by immunoblot in transfected 293 cells. The following applies: 293 cells co-transfected with HA-OS-9 and HIF-1α; MG132 10 μM; FIG. 4A. It is filed as cell-based, human. As to the method:
293 or Hep3B cells were seeded onto 24-well plates at 8×10^4 cells per well of a 24-well plate. The following day, the cells were transfected with plasmid DNAs using Fugene-6 (Roche) for 293 and Lipofectamine Plus (Invitrogen) for Hep3B cells. After 24 h, the cells were exposed to 20% or 1% O2 for 24 h. Cells were lysed, and the luciferase activities were determined by multi-well luminescence reader (PerkinElmer), using the Dual-Luciferase Reporter Assay System (Promega). For p2.1 reporter assay, cells were co-transfected with 15 ng of control reporter pSV-Renilla, 135 ng of HIF-1 reporter p2.1, and expression vector encoding HA-OS-9, HIF-1α, or empty vector. Unless indicated otherwise, 200 ng of HIF-1α, 400 ng of HA-OS-9, 1 ng of PHD2, or 1 ng of HIF-1α triple mutant P402A/P564A/N803A (HIF-1α TM) expression vector was used for co-transfection. For pGalA reporter assays, Hep3B cells were co-transfected with 12.5 ng of pSV-Renilla, reporter 200 ng of pG5ElbLuc, 100 ng of expression vector encoding the GAL4 DNA-binding domain alone or fused to HIF-1α residues 531-826 (Jiang et al. 1997) and empty vector or vector encoding HA-OS-9. For immunoblot assays, 293 cells were seeded at 3×10^6 cells per 10-cm plate. The following day, the cells were co-transfected with expression vectors using Fugene-6. After 24 h, the cells were exposed to 20% or 1% O2 with or without MG132 (10 μM) for 8 h and lysed in 200 μl of lysis buffer containing 50 mM Tris-Cl (pH 8.0), 150 mM NaCl, 5 mM EDTA, 0.1% SDS, 1% NP-40, 0.5% sodium deoxycholate, Complete protease inhibitor cocktail (Roche), sodium orthovanadate, and sodium vanadate (Sigma).
(In general: A western blot detects proteins with antibodies after separation by electrophoresis.)

Assay [3] deals with T2, HA-OS-9 (hemagglutinin epitope-tagged human OS-9) (human, UniProt Q13438 1-667, 35S-methionine labelled when in vitro-translated).
T2 construct: In vitro-translated in reticulocyte lysate (pull-downs) or expressed in transfected 293 cells (co-IP, lysates); also called HA-tagged OS-9; in vitro-translated OS-9
T2 sequence (looked up): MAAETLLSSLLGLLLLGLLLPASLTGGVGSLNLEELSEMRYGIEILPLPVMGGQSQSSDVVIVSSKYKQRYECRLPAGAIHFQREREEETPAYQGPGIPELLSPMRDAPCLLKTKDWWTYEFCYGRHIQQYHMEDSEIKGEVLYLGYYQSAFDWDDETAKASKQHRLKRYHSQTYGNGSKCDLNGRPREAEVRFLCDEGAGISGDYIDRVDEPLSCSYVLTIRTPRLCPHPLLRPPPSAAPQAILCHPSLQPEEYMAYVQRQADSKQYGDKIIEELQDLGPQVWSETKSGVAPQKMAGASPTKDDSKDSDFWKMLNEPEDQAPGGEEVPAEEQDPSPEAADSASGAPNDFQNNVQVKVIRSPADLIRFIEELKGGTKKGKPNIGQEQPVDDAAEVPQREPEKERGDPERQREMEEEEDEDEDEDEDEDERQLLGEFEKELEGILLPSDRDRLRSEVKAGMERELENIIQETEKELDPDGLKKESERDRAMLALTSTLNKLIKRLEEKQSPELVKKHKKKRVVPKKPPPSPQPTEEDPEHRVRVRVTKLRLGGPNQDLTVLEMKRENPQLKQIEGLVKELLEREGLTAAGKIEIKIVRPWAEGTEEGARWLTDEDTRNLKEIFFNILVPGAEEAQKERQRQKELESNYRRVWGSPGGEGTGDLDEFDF
Briefly: GST pull-down of 35S-labelled in vitro-translated HA-OS-9, SDS-PAGE and autoradiography.

Peptide text beside a SMILES is read from it. * marks the point of attachment. Cbz = O=C(OCc1ccccc1)*

T1 sequence (Q9GZT9 whole entry): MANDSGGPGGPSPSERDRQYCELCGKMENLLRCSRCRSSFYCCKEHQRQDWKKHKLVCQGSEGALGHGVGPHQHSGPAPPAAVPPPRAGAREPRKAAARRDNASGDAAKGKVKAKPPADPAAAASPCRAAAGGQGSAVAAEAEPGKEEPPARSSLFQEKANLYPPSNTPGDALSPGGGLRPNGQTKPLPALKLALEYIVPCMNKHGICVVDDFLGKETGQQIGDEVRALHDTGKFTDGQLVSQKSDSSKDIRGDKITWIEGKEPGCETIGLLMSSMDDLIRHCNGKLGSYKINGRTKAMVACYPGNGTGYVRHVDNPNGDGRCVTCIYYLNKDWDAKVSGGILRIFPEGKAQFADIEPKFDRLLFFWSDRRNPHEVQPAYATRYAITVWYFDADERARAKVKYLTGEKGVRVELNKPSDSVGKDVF

On to `COC(=O)CNC(=O)C(=O)OC` [DMOG, dimethyloxalylglycine, reference compound], for which, on PHD2 [1], the “binding of VHL to GST-HIF-1α (531-826)” value was “completely blocked”. For the same molecule, at PHD2 [2], the “binding of PHD2 to GST-HIF-1α (531-826)” value is given as “further increased”.

As to `CC(C)C[C@@H](C=O)NC(=O)[C@H](CC(C)C)NC(=O)[C@H](CC(C)C)NC(=O)OCc1ccccc1` [MG 132, reference compound] (Cbz-Leu-Leu-Leu-aldehyde), the “reduction in HIF-1α protein levels associated with OS-9 co-expression” value in the assay with HIF-1α is reported as “blocked”.

B1: GST-HIF-1α (531-610) (other, UniProt Q16665 531-610, looked up)
chain: FKLELVEKLFAEDTEAKNPFSTQDTDLDLEMLAPYIPMDDDFQLRSFDQLSPLESSSASPESASPQSTVTVFQQTQIQEP
notes: Expressed in E. coli; not shown: glutathione-S-transferase (GST) from a pGEX expression vector
Consider B1, for which the binding result in assay [3] was “no binding”.

B2: GST-HIF-1α (786-826) (other, UniProt Q16665 786-826, looked up)
chain: SMDESGLPQLTSYDCEVNAPIQGSRNLLQGEELLRALDQVN
notes: as for B1
B2: in assay [3], the binding result is “no binding”.

B3: GST-HIF-1α (429-608) (other, UniProt Q16665 429-608, looked up)
chain: PLYNDVMLPSPNEKLQNINLAMSPLPTAETPKPLRSSADPALNQEVALKLEPNPESLELSFTMPQIQDQTPSPSDGSTRQSSPEPNSPSEYCFYVDSDMVNEFKLELVEKLFAEDTEAKNPFSTQDTDLDLEMLAPYIPMDDDFQLRSFDQLSPLESSSASPESASPQSTVTVFQQTQIQ
notes: as for B1
With B3, the binding result in assay [3] was “no binding”.

Source of the values: patent US20090202508A1, “NEGATIVE REGULATION OF HYPOXIA INDUCIBLE FACTOR 1 BY OS-9” (THE JOHNS HOPKINS UNIVERSITY, priority 2004, published 2009).
